The values below come from US5138069A (E. I. Du Pont de Nemours and Company, priority 1988, dated 1992).

Experiment [1] has as its system conscious dogs. Briefly: Hypotensive effects in conscious dogs before and after furosemide. Format: in vivo. On the procedure: (§1) The hypotensive effects of 2-butyl-4-chloro-1-[2'-(1H-tetrazol-5-yl)biphenyl-4-yl)methyl]-5-hydroxymethylimidazole sodium salt were compared before and after furosemide administration to conscious dogs. […] Plasma renin activity (PRA) in these animals was 1.5±0.5 ng AI/ml/hr. Four days later, furosemide was given to three of these dogs at 10 mg/kg im at 18 and 2 hours before the experiment and increased PRA to 19.9±7.2 ng AI/ml/hr. […] Thus a combined therapy of these two classes of drugs will be likely to increase the response rate to therapy among hypertensive patients.

For experiment [2], the system named is pressor response to AII. Briefly: Inhibition of the pressor response to AII in conscious dogs. It counts as in vivo. On the procedure: as §1
In experiment [3] the test system is AII. The conditions noted are these: cited from earlier work.
For experiment [4], the system named is renal vasoconstrictor effect of NSAID. The following applies: dogs; cited from earlier work.
For experiment [5], the system named is Plasma renin activity (PRA). Nature of the experiment: Plasma renin activity in conscious dogs. It counts as in vivo. The conditions noted are these: three dogs, furosemide 10 mg/kg im at 18 and 2 hours before; PRA before 1.5±0.5. On the procedure: as §1

Each structure is given as a SMILES string.

Consider `CCCCc1nc(Cl)c(CO)n1Cc1ccc(-c2ccccc2-c2nnn[nH]2)cc1`, for which the “blood pressure, after furosemide” value in experiment [1] (conscious dogs, cumulative iv 0.3 to 3 mg/kg after furosemide 10 mg/kg im at 18 and 2 hours before) was “caused a significant decrease in blood pressure in a dose-dependent manner”. Further, in experiment [1] (normotensive conscious dogs, cumulative iv 0.3 to 3 mg/kg, n=4), the “blood pressure, before furosemide” value is given as “did not lower blood pressure”. For the same compound, the “inhibition of pressor response to AII, before furosemide” value in experiment [2] (cumulative iv 0.3 to 3 mg/kg, AII 0.1 μg/kg iv, 10 min post dose) is reported as “effective in inhibiting the pressor response to AII”. Besides, the “inhibition of pressor response to AII, after furosemide” value in experiment [2] (iv, after furosemide 10 mg/kg im) is “inhibited the pressor response to AII at the two higher doses”.
Take `CNCC(=O)N[C@@H](CCCN=C(N)N)C(=O)N[C@H](C(=O)N[C@@H](Cc1ccc(O)cc1)C(=O)N[C@H](C(=O)N[C@@H](Cc1cnc[nH]1)C(=O)N1CCC[C@H]1C(=O)N[C@@H](C)C(=O)O)C(C)C)C(C)C` [Saralasin, [Sar^1, Ala^8] AII]: the “antagonism of the actions of AII” value in experiment [3] (Pals et al. 1971, pithed rats) was “one of the most potent competitive antagonists of the actions of AII”. In addition, in experiment [3] (mammals and man, elevated pressure dependent on circulating AII), the arterial pressure result is “lower arterial pressure in mammals and man”. In addition, the oral efficacy entry in experiment [3] (oral doses) was “oral doses being ineffective”. In experiment [3] (when the pressure is not sustained by AII), the pressor effects entry is listed as “generally elicits pressor effects when the pressure is not sustained by AII”. For the same compound, in experiment [4], the “effect on renal vasoconstrictor effect of indomethacin and meclofenamate” value is “inhibit the renal vasoconstrictor effect of indomethacin and meclofenamate in dogs”.
Take `NS(=O)(=O)c1cc(C(=O)O)c(NCc2ccco2)cc1Cl` [furosemide]: the “Plasma renin activity (PRA) after furosemide” value in experiment [5] turned out to be 19.9±7.2 ng AI/ml/hr.
